This is an account of results in patent US9505786B2, “Substituted annulated triazines and use thereof” (BAYER INTELLECTUAL PROPERTY GMBH, priority 2012, dated 2016).

The test system of assay [1] is aorta rings. Briefly: Vasorelaxant effect in vitro (phenylephrine-contracted aorta rings). The settings on record: rabbit aorta rings, organ bath, phenylephrine contraction, read-out: IC50 (concentration needed to reduce the phenylephrine contraction by 50%). How it is done:
B-1. Vasorelaxant Effect In Vitro
Rabbits are stunned by a blow to the neck and exsanguinated. The aorta is removed, freed from adhering tissue and divided into rings of a width of 1.5 mm. The rings are placed individually under an initial tension in 5 ml organ baths with Krebs-Henseleit solution which is at 37° C., is gassed with carbogen and has the following composition (in each case mM): sodium chloride: 119; potassium chloride: 4.8; calcium chloride dihydrate: 1; magnesium sulphate heptahydrate: 1.4; potassium dihydrogenphosphate: 1.2; sodium bicarbonate: 25; glucose: 10. The contractile force is determined with Statham UC2 cells, amplified and digitalized using A/D transducers (DAS-1802 HC, Keithley Instruments Munich), and recorded in parallel on linear recorders.
To produce a contraction, phenylephrine is added to the bath cumulatively in increasing concentration. After several control cycles, the substance to be investigated is added in each further run in increasing dosage in each case, and the height of the contraction achieved is compared with the height of the contraction reached in the last preceding run. This is used to calculate the concentration needed to reduce the magnitude of the control value by 50% (IC50 value). The standard administration volume is 5 μl; the DMSO content in the bath solution corresponds to 0.1%.

In assay [2] the test system is recombinant guanylate cyclase reporter cell line. Briefly: Effect on a recombinant guanylate cyclase reporter cell line. The class given is cell-based. As for the experimental part:
B-2. Effect on a Recombinant Guanylate Cyclase Reporter Cell Line
The cellular activity of the compounds according to the invention is determined using a recombinant guanylate cyclase reporter cell line, as described in F. Wunder et al., Anal. Biochem. 339, 104-112 (2005).

For assay [3], the target named is human phosphodiesterase 5 (PDE 5) (Homo sapiens (Human), UniProt O76074). The assay is described as follows: Inhibition of human phosphodiesterase 5 (PDE 5), SPA assay. The class given is biochemical. The settings on record: PDE 5 preparation from human platelets, [8-3H] cGMP substrate. How it is done:
B-6. Inhibition of Human Phosphodiesterase 5 (PDE 5)
PDE 5 preparations are obtained from human platelets by disruption (Microfluidizer®, 800 bar, 3 passes), followed by centrifugation (75 000 g, 60 min, 4° C.) and ion exchange chromatography of the supernatant on a Mono Q 10/10 column (linear sodium chloride gradient, elution with a 0.2-0.3M solution of sodium chloride in buffer (20 mM Hepes pH 7.2, 2 mM magnesium chloride). Fractions having PDE 5 activity are combined (PDE 5 preparation) and stored at −80° C.
To determine their in vitro action on human PDE 5, the test substances are dissolved in 100% DMSO and serially diluted. Typically, dilution series (1:3) from 200 μM to 0.091 μM are prepared (resulting final concentrations in the test: 4 μM to 0.0018 μM). In each case 2 μl of the diluted substance solutions are placed into the wells of microtitre plates (Isoplate-96/200W; Perkin Elmer). Subsequently, 50 μl of a dilution of the above-described PDE 5 preparation are added. The dilution of the PDE 5 preparation is chosen such that during the later incubation less than 70% of the substrate are converted (typical dilution: 1:100; dilution buffer: 50 mM Tris/hydrochloric acid pH 7.5, 8.3 mM magnesium chloride, 1.7 mM EDTA, 0.2% BSA). The substrate, [8-^3H] cyclic guanosine-3′,5′-monophosphate (1 μCi/μl; Perkin Elmer) is diluted 1:2000 with assay buffer (50 mM tris/hydrochloric acid pH 7.5, 8.3 mM magnesium chloride, 1.7 mM EDTA) to a concentration of 0.0005 μCi/μl. By addition of 50 μl (0.025 μCi) of the diluted substrate, the enzyme reaction is finally started. The test mixtures are incubated at room temperature for 60 min and the reaction is stopped by adding 25 μl of a suspension of 18 mg/ml yttrium scintillation proximity beads in water (phosphodiesterase beads for SPA assays, RPNQ 0150, Perkin Elmer). The microtitre plates are sealed with a film and left to stand at room temperature for 60 min. Subsequently, the plates are analysed for 30 s per well in a Microbeta scintillation counter (Perkin Elmer). IC50 values are determined using the graphic plot of the substance concentration against percentage PDE 5 inhibition.

SMILES strings stand for the structures. Read-outs that look alike come from different tables or passages of the source.

As to `CC1(CC2CC2)C(=O)Nc2nc(-c3nn(Cc4ccccc4F)c4ncc(F)cc34)nnc21` (racemic) [Example 5, 7-(Cyclopropylmethyl)-3-[5-fluoro-1-(2-fluorobenzyl)-1H-pyrazolo[3,4-b]pyridin-3-yl]-7-methyl-5,7-dihydro-6H-pyrrolo[2,3-e][1,2,4]triazin-6-one (racemate)], the IC50 was 0.137 µM in assay [1] (Oryctolagus cuniculus) and 0.26 µM in assay [3]. Further, in assay [2], the “MEC (minimum effective concentration)” value worked out at 100 nM.

As for `CC1(COCc2ccccc2)C(=O)Nc2nc(-c3nn(Cc4ccccc4F)c4ncc(F)cc34)nnc21` (racemic) [Example 6, 7-[(Benzyloxy)methyl]-3-[5-fluoro-1-(2-fluorobenzyl)-1H-pyrazolo[3,4-b]pyridin-3-yl]-7-methyl-5,7-dihydro-6H-pyrrolo[2,3-e][1,2,4]triazin-6-one (racemate)], the figures for the IC50 in assay [1] (Oryctolagus cuniculus) and in assay [3] were 0.246 µM and 1.1 µM, respectively. Moreover, the “MEC (minimum effective concentration)” value in assay [2] came to 100 nM.

Turning to `CCC1(C)C(=O)Nc2nc(-c3nn(Cc4ccccc4F)c4ncc(F)cc34)nnc21` (racemic) [Example 7, 7-Ethyl-3-[5-fluoro-1-(2-fluorobenzyl)-1H-pyrazolo[3,4-b]pyridin-3-yl]-7-methyl-5,7-dihydro-6H-pyrrolo[2,3-e][1,2,4]triazin-6-one (racemate)], the IC50 stood at 0.041 µM in assay [1] (Oryctolagus cuniculus) and 0.34 µM in assay [3]. The “MEC (minimum effective concentration)” value in assay [2] is on record as 30 nM.

`C=CCC1(C)C(=O)Nc2nc(-c3nn(Cc4ccccc4F)c4ncccc34)nnc21` (racemic) [Example 28, (rac) 7-Allyl-3-[1-(2-fluorobenzyl)-1H-pyrazolo[3,4-b]pyridin-3-yl]-7-methyl-5,7-dihydro-6H-pyrrolo[2,3-e][1,2,4]triazin-6-one]: the values for the IC50 in assay [1] (Oryctolagus cuniculus) and in assay [3] were 0.209 µM and 0.31 µM, respectively. Moreover, the “MEC (minimum effective concentration)” value in assay [2] worked out at 30 nM.

Take `CC1(c2nncs2)C(=O)Nc2nc(-c3nn(Cc4ccccc4F)c4ncccc34)ncc21` (racemic) [Example 34, (rac) 2-[1-(2-Fluorobenzyl)-1H-pyrazolo[3,4-b]pyridin-3-yl]-5-methyl-5-(1,3,4-thiadiazol-2-yl)-5,7-dihydro-6H-pyrrolo[2,3-d]pyrimidin-6-one]: the IC50 in assay [1] (Oryctolagus cuniculus) is 0.218 µM; in assay [3], 1.2 µM. Further, the “MEC (minimum effective concentration)” value in assay [2] came to 30 nM.

With `CCOC(=O)C1(C)C(=O)Nc2nc(-c3nn(Cc4ccccc4F)c4ncccc34)nc(I)c21` (racemic) [Example 43, (rac) Ethyl 2-[1-(2-fluorobenzyl)-1H-pyrazolo[3,4-b]pyridin-3-yl]-4-iodo-5-methyl-6-oxo-6,7-dihydro-5H-pyrrolo[2,3-d]pyrimidine-5-carboxylate], the IC50 in assay [1] (Oryctolagus cuniculus) turned out to be 0.968 µM; in assay [3], 1.75 µM. Further, the “MEC (minimum effective concentration)” value in assay [2] stood at 100 nM.

In the case of `C=CCC1(C)C(=O)Nc2nc(-c3nn(Cc4ccccc4F)c4ncc(F)cc34)nnc21` (racemic) [Example 51, (rac) 7-Allyl-3-[5-fluoro-1-(2-fluorobenzyl)-1H-pyrazolo[3,4-b]pyridin-3-yl]-7-methyl-5,7-dihydro-6H-pyrrolo[2,3-e][1,2,4]triazin-6-one], the results for the IC50 in assay [1] (Oryctolagus cuniculus) and in assay [3] were 0.413 µM and 0.14 µM, respectively. Also, in assay [2], the “MEC (minimum effective concentration)” value is 30 nM.

As for `CC1(CC2CC2)C(=O)Nc2nc(-c3nn(Cc4ccccc4F)c4ncc(F)cc34)nnc21` (single isomer, unassigned) [Example 5-1, 7-(Cyclopropylmethyl)-3-[5-fluoro-1-(2-fluorobenzyl)-1H-pyrazolo[3,4-b]pyridin-3-yl]-7-methyl-5,7-dihydro-6H-pyrrolo[2,3-e][1,2,4]triazin-6-one], the IC50 is 0.321 µM in assay [1] and 0.35 µM in assay [3].

With `CC1(CC2CC2)C(=O)Nc2nc(-c3nn(Cc4ccccc4F)c4ncc(F)cc34)nnc21` (single isomer, unassigned) [Example 5-2, 7-(Cyclopropylmethyl)-3-[5-fluoro-1-(2-fluorobenzyl)-1H-pyrazolo[3,4-b]pyridin-3-yl]-7-methyl-5,7-dihydro-6H-pyrrolo[2,3-e][1,2,4]triazin-6-one], the IC50 worked out at 0.661 µM in assay [1] and 0.25 µM in assay [3].

As for `CCC1(C)C(=O)Nc2nc(-c3nn(Cc4ccccc4F)c4ncc(F)cc34)nnc21` (single isomer, unassigned) [Example 7-1, 7-Ethyl-3-[5-fluoro-1-(2-fluorobenzyl)-1H-pyrazolo[3,4-b]pyridin-3-yl]-7-methyl-5,7-dihydro-6H-pyrrolo[2,3-e][1,2,4]triazin-6-one], the IC50 in assay [1] came out at 0.059 µM; in assay [3], 0.2 µM.

Regarding `CCC1(C)C(=O)Nc2nc(-c3nn(Cc4ccccc4F)c4ncc(F)cc34)nnc21` (single isomer, unassigned) [Example 7-2, 7-Ethyl-3-[5-fluoro-1-(2-fluorobenzyl)-1H-pyrazolo[3,4-b]pyridin-3-yl]-7-methyl-5,7-dihydro-6H-pyrrolo[2,3-e][1,2,4]triazin-6-one], the IC50 in assay [1] worked out at 0.185 µM; in assay [3], 0.35 µM.

In the case of `CCOC(=O)/C=C/c1nc(-c2nn(Cc3ccccc3F)c3ncccc23)nc2c1C(C)(C)C(=O)N2` [Example 27, Ethyl 3-{2-[1-(2-fluorobenzyl)-1H-pyrazolo[3,4-b]pyridin-3-yl]-5,5-dimethyl-6-oxo-6,7-dihydro-5H-pyrrolo[2,3-d]pyrimidin-4-yl}acrylate], in assay [2], the “MEC (minimum effective concentration)” value is on record as 300 nM. The IC50 in assay [3] turned out to be 0.215 µM.

As for `CCOC(=O)C#Cc1nc(-c2nn(Cc3ccccc3F)c3ncccc23)nc2c1C(C)(C)C(=O)N2` [Example 53, Ethyl 3-{2-[1-(2-fluorobenzyl)-1H-pyrazolo[3,4-b]pyridin-3-yl]-5,5-dimethyl-6-oxo-6,7-dihydro-5H-pyrrolo[2,3-d]pyrimidin-4-yl}prop-2-ynoate], the “MEC (minimum effective concentration)” value in assay [2] is 100 nM. In assay [3], this compound yielded an IC50 of 0.041 µM.

Take `CC1(C)C(=O)Nc2nc(-c3nn(Cc4ccccc4F)c4ncc(F)cc34)nc(CN3CCCC3=O)c21` [Example 54, 2-[5-Fluoro-1-(2-fluorobenzyl)-1H-pyrazolo[3,4-b]pyridin-3-yl]-5,5-dimethyl-4-[(2-oxopyrrolidin-1-yl)methyl]-5,7-dihydro-6H-pyrrolo[2,3-d]pyrimidin-6-one]: the “MEC (minimum effective concentration)” value in assay [2] is listed as 100 nM. In addition, in assay [3], the IC50 was 0.145 µM.

In the case of `CC1(C)C(=O)Nc2nc(-c3nn(Cc4ccccc4F)c4ncc(F)cc34)nc(CNS(=O)(=O)C3CC3)c21` [Example 55, N-({2-[5-Fluoro-1-(2-fluorobenzyl)-1H-pyrazolo[3,4-b]pyridin-3-yl]-5,5-dimethyl-6-oxo-6,7-dihydro-5H-pyrrolo[2,3-d]pyrimidin-4-yl}methyl)cyclopropanesulphonamide], the “MEC (minimum effective concentration)” value in assay [2] came out at 30 nM. For the same compound, the IC50 in assay [3] is 0.19 µM.

On to `CC1(C)C(=O)Nc2nc(-c3nn(Cc4ccccc4F)c4ncccc34)nc(CC(N)=O)c21` [Example 61, 2-{2-[1-(2-Fluorobenzyl)-1H-pyrazolo[3,4-b]pyridin-3-yl]-5,5-dimethyl-6-oxo-6,7-dihydro-5H-pyrrolo[2,3-d]pyrimidin-4-yl}acetamide], for which, in assay [2], the “MEC (minimum effective concentration)” value is on record as 30 nM. Further, the IC50 in assay [3] turned out to be 0.015 µM.
